Target: CCR2 (Homo sapiens (Human), UniProt P41597)
Experiment: Calcium activity assayed on the FLIPR Tetra in HEK-Gqi5 cells stably expressing CCR2
Assay type: cell-based
Conditions: FLIPR Tetra calcium assay

Sequence of CCR2 (P41597 whole entry, species assumed): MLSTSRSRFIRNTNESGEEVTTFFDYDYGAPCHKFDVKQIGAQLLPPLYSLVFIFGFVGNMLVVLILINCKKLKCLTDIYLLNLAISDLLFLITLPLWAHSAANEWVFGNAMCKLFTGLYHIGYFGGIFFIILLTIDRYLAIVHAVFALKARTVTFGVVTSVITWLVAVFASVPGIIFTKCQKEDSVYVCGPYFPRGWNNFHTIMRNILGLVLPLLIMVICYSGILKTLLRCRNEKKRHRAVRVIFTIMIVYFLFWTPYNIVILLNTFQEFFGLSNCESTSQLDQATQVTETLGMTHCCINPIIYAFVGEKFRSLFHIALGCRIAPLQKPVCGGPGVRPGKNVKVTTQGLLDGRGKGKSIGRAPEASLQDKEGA

| SMILES | CCR2 % ANTAGONISM | IC50 |
| --- | --- | --- |
| Nc1cccc(CSc2ccccc2NS(=O)(=O)c2cc3ccccc3o2)c1 [N-{2-[(3-aminobenzyl)thio]phenyl}-1-benzofuran-2-sulfonamide] | 105% | 676 nM |
| Nc1cccc(C[S+]([O-])c2ccc(Cl)cc2NS(=O)(=O)c2cc3ccccc3o2)c1 (stereo not shown) [N-{2-[(3-aminobenzypsulfinyl]-5-chlorophenyl}-1-benzofuran-2-sulfonamide] | 96% | 39 nM |
| Nc1cccc(C[S+]([O-])c2ccc(Cl)cc2NS(=O)(=O)c2cccc(Cl)c2)c1 (stereo not shown) [N-{2-[(3-aminobenzypsulfinyl]-5-chlorophenyl}-3-chlorobenzenesulfonamide] | 93% | 159 nM |
| Nc1cccc(CS(=O)(=O)c2ccc(Cl)cc2NS(=O)(=O)c2cc3ccccc3o2)c1 [N-{2-[(3-aminobenzypsulfonyl]-5-chlorophenyl}-1-benzofuran-2-sulfonamide] | 90% | 23 nM |
| Nc1cccc(CS(=O)(=O)c2ccc(Cl)cc2NS(=O)(=O)c2cccc(Cl)c2)c1 [N-{2-[(3-aminobenzypsulfonyl]-5-chlorophenyl}-3-chlorobenzenesulfonamide] | 91% | 246 nM |
| Nc1cccc(CSc2ccc(Cl)cc2NS(=O)(=O)c2cc3ccccc3o2)c1 [N-{2-[(3-aminobenzypthio]-5-chlorophenyl}-1-benzofuran-2-sulfonamide] | 92% | 42 nM |
| NCCC[S+]([O-])c1ccc(Cl)cc1NS(=O)(=O)c1cc2ccccc2o1 (stereo not shown) [N-{2-[(3-aminopropyl)sulfinyl]-5-chlorophenyl}-1-benzofuran-2-sulfonamide] | 63% | – |
| NCCCS(=O)(=O)c1ccc(Cl)cc1NS(=O)(=O)c1cc2ccccc2o1 [N-{2-[(3-aminopropyl)sulfonyl]-5-chlorophenyl}-1-benzofuran-2-sulfonamide] | 82% | – |
| NCCCSc1ccc(Cl)cc1NS(=O)(=O)c1cc2ccccc2o1 [N-{2-[(3-aminopropyl)thio]-5-chlorophenyl}-1-benzofuran-2-sulfonamide] | 102% | – |
| O=[N+]([O-])c1cccc(C[S+]([O-])c2ccccc2NS(=O)(=O)c2cc3ccccc3o2)c1 (stereo not shown) [N-{2-[(3-nitrobenzyl)sulfinyl]phenyl}-1-benzofuran-2-sulfonamide] | 97% | 653 nM |
| O=[N+]([O-])c1cccc(CS(=O)(=O)c2ccccc2NS(=O)(=O)c2cc3ccccc3o2)c1 [N-{2-[(3-nitrobenzyl)sulfonyl]phenyl}-1-benzofuran-2-sulfonamide] | 83% | 2130 nM |
| Nc1ccc(CS(=O)(=O)c2ccc(Cl)cc2NS(=O)(=O)c2cc3ccccc3o2)cc1 [N-{2-[(4-aminobenzyl)sulfonyl]-5-chlorophenyl}-1-benzofuran-2-sulfonamide] | 104% | 90 nM |
| CC(=O)Nc1nc(CSc2ccc(Cl)cc2NS(=O)(=O)c2cc3ccccc3o2)cs1 [N-{4-[({2-[(1-benzofuran-2-ylsulfonyl)amino]-4-chlorophenyl}thio)methyl]-1,3-thiazol-2-yl}acetamide] | 102% | 848 nM |
| O=S(=O)(Nc1cc(Cl)ccc1[S+]([O-])Cc1ncc[nH]1)c1cc2ccccc2o1 (stereo not shown) [N-{5-chloro-2-[(1H-imidazol-2-ylmethyl)sulfinyl]phenyl}-1-benzofuran-2-sulfonamide] | 108% | 1900 nM |
| O=S(=O)(Cc1ncc[nH]1)c1ccc(Cl)cc1NS(=O)(=O)c1cc2ccccc2o1 [N-{5-chloro-2-[(1H-imidazol-2-ylmethyl)sulfonyl]phenyl}-1-benzofuran-2-sulfonamide] | 109% | 1350 nM |
| O=S(=O)(Nc1cc(Cl)ccc1SCc1ncc[nH]1)c1cc2ccccc2o1 [N-{5-chloro-2-[(1H-imidazol-2-ylmethyl)thio]phenyl}-1-benzofuran-2-sulfonamide] | 93% | 60 nM |
| O=S(=O)(Nc1cc(Cl)ccc1[S+]([O-])Cc1c[nH]cn1)c1cc2ccccc2o1 (stereo not shown) [N-{5-chloro-2-[(1H-imidazol-4-ylmethyl)sulfinyl]phenyl}-1-benzofuran-2-sulfonamide] | 108% | 296 nM |
| O=S(=O)(Cc1c[nH]cn1)c1ccc(Cl)cc1NS(=O)(=O)c1cc2ccccc2o1 [N-{5-chloro-2-[(1H-imidazol-4-ylmethyl)sulfonyl]phenyl}-1-benzofuran-2-sulfonamide] | 106% | 81 nM |
| O=S(=O)(Nc1cc(Cl)ccc1SCc1c[nH]cn1)c1cc2ccccc2o1 [N-{5-chloro-2-[(1H-imidazol-4-ylmethyl)thio]phenyl}-1-benzofuran-2-sulfonamide] | 100% | 10 nM |

| SMILES | CCR2 % ANTAGONISM | IC50 |
| --- | --- | --- |
| O=S(=O)(Nc1cc(Cl)ccc1[S+]([O-])Cc1cc[nH]n1)c1cc2ccccc2o1 (stereo not shown) [N-{5-chloro-2-[(1H-pyrazol-3-ylmethyl)sulfinyl]phenyl}-1-benzofuran-2-sulfonamide] | 99% | 634 nM |
| O=S(=O)(Cc1cc[nH]n1)c1ccc(Cl)cc1NS(=O)(=O)c1cc2ccccc2o1 [N-{5-chloro-2-[(1H-pyrazol-3-ylmethyl)sulfonyl]phenyl}-1-benzofuran-2-sulfonamide] | 102% | 367 nM |
| O=S(=O)(Nc1cc(Cl)ccc1SCc1cc[nH]n1)c1cc2ccccc2o1 [N-{5-chloro-2-[(1H-pyrazol-3-ylmethyl)thio]phenyl}-1-benzofuran-2-sulfonamide] | 99% | 16 nM |
| O=[N+]([O-])c1ccccc1C[S+]([O-])c1ccc(Cl)cc1NS(=O)(=O)c1cc2ccccc2o1 (stereo not shown) [N-{5-chloro-2-[(2-nitrobenzyl)sulfinyl]phenyl}-1-benzofuran-2-sulfonamide] | 95% | 75 nM |
| O=S(=O)(Nc1cc(Cl)ccc1[S+]([O-])CCc1ccccn1)c1cc2ccccc2o1 (stereo not shown) [N-{5-chloro-2-[(2-pyridin-2-ylethyl)sulfinyl]phenyl}-1-benzofuran-2-sulfonamide] | 86% | 153 nM |
| O=S(=O)(CCc1ccccn1)c1ccc(Cl)cc1NS(=O)(=O)c1cc2ccccc2o1 [N-{5-chloro-2-[(2-pyridin-2-ylethyl)sulfonyl]phenyl}-1-benzofuran-2-sulfonamide] | 93% | 197 nM |
| O=S(=O)(Nc1cc(Cl)ccc1SCCc1ccccn1)c1cc2ccccc2o1 [N-{5-chloro-2-[(2-pyridin-2-ylethyl)thio]phenyl}-1-benzofuran-2-sulfonamide] | 84% | 713 nM |
| O=S(=O)(Nc1cc(Cl)ccc1[S+]([O-])Cc1cccc(O)c1)c1cc2ccccc2o1 (stereo not shown) [N-{5-chloro-2-[(3-hydroxybenzyl)sulfinyl]phenyl}-1-benzofuran-2-sulfonamide] | 103% | 112 nM |
| O=S(=O)(Cc1cccc(O)c1)c1ccc(Cl)cc1NS(=O)(=O)c1cc2ccccc2o1 [N-{5-chloro-2-[(3-hydroxybenzyl)sulfonyl]phenyl}-1-benzofuran-2-sulfonamide] | 96% | 56 nM |
| O=S(=O)(Nc1cc(Cl)ccc1SCc1cccc(O)c1)c1cc2ccccc2o1 [N-{5-chloro-2-[(3-hydroxybenzyl)thio]phenyl}-1-benzofuran-2-sulfonamide] | 98% | 77 nM |
| COc1cccc(CSc2ccc(Cl)cc2NS(=O)(=O)c2cc3ccccc3o2)c1 [N-{5-chloro-2-[(3-methoxybenzyl)thio]phenyl}-1-benzofuran-2-sulfonamide] | 85% | 651 nM |
| O=[N+]([O-])c1cccc(CSc2ccc(Cl)cc2NS(=O)(=O)c2cc3ccccc3o2)c1 [N-{5-chloro-2-[(3-nitrobenzyl)thio]phenyl}-1-benzofuran-2-sulfonamide] | 63% | – |
| O=[N+]([O-])c1ccc(CS(=O)(=O)c2ccc(Cl)cc2NS(=O)(=O)c2cc3ccccc3o2)cc1 [N-{5-chloro-2-[(4-nitrobenzyl)sulfonyl]phenyl}-1-benzofuran-2-sulfonamide] | 20% | 2160 nM |
| O=[N+]([O-])c1ccc(CSc2ccc(Cl)cc2NS(=O)(=O)c2cc3ccccc3o2)cc1 [N-{5-chloro-2-[(4-nitrobenzyl)thio]phenyl}-1-benzofuran-2-sulfonamide] | 82% | 147 nM |
| O=S(=O)(Nc1cc(Cl)ccc1[S+]([O-])Cc1ccccn1)c1cc2ccccc2o1 (stereo not shown) [N-{5-chloro-2-[(pyridin-2-ylmethyl)sulfinyl]phenyl}-1-benzofuran-2-sulfonamide] | 100% | 29 nM |
| O=S(=O)(Cc1ccccn1)c1ccc(Cl)cc1NS(=O)(=O)c1cc2ccccc2o1 [N-{5-chloro-2-[(pyridin-2-ylmethyl)sulfonyl]phenyl}-1-benzofuran-2-sulfonamide] | 100% | 29 nM |
| O=S(=O)(Nc1cc(Cl)ccc1SCc1ccccn1)c1cc2ccccc2o1 [N-{5-chloro-2-[(pyridin-2-ylmethyl)thio]phenyl}-1-benzofuran-2-sulfonamide] | 91% | 35 nM |
| O=S(=O)(Nc1cc(Cl)ccc1[S+]([O-])Cc1cccnc1)c1cc2ccccc2o1 (stereo not shown) [N-{5-chloro-2-[(pyridin-3-ylmethyl)sulfinyl]phenyl}-1-benzofuran-2-sulfonamide] | 100% | 76 nM |
